Reference: patent US20230172206A1 (BASF SE, priority 2020, published 2023)

Tests used:
[1] = tested on: Phakopsora pachyrhizi (F129L); test: Protective control of soybean rust on soybeans (PHAKPA P2); format: in vivo; conditions: for % PHAKPA (F129L) Disease level P2 at 4 ppm: protective P2, 4 ppm; for % PHAKPA (F129L) Disease level P2 at 16 ppm: protective P2, 16 ppm
[2] = tested on: Phakopsora pachyrhizi (F129L); test: Protective control of soybean rust on soybeans (PHAKPA P6); format: in vivo; conditions: for % PHAKPA (F129L) Disease level P6 at 4 ppm: protective P6, 4 ppm; for % PHAKPA (F129L) Disease level P6 at 16 ppm: protective P6, 16 ppm

Compound | % PHAKPA (F129L) Disease level P2 at 4 ppm ([1]; F129L isolate) | % PHAKPA (F129L) Disease level P2 at 16 ppm ([1]; F129L isolate) | % PHAKPA (F129L) Disease level P6 at 4 ppm ([2]; F129L isolate) | % PHAKPA (F129L) Disease level P6 at 16 ppm ([2]; F129L isolate) | % PHAKPA (F129L) Disease level P2 at 4 ppm ([1]; soybean rust F129L isolate) | % PHAKPA (F129L) Disease level P2 at 16 ppm ([1]; soybean rust F129L isolate) | % PHAKPA (F129L) Disease level P6 at 4 ppm ([2]; soybean rust F129L isolate) | % PHAKPA (F129L) Disease level P6 at 16 ppm ([2]; soybean rust F129L isolate)
CCC/C(=N\OCc1c(C)cccc1/C(=N\OC)C(=O)NC)c1ccccc1 [compound 388] | 1% | 0% | 3% | 0% |  |  |  | 
CNC(=O)/C(=N/OC)c1cccc(C)c1CO/N=C(\CC(F)(F)F)c1cc(Cl)cc(Cl)c1 [compound 255] |  |  |  |  | 97% | 83% | 100% | 87%
CNC(=O)/C(=N/OC)c1cccc(C)c1CO/N=C(\C)c1c(Cl)cc(Cl)cc1OC(F)(F)F [compound 428] | 70% | 11% | 83% | 20% |  |  |  | 
CO/N=C(/C(=O)OC)c1cccc(C)c1CO/N=C(\C)c1ccc(F)cc1Cl [compound 256] |  |  |  |  | 50% | 18% | 70% | 20%
CO/N=C(/C)c1ccc(/C(C)=N/OCc2c(C)cccc2/C(=N\OC)C(=O)OC)c(OC(F)(F)F)c1 [compound 418] | 70% | 33% | 73% | 57% |  |  |  | 
CO/C=C(/C(=O)OC)c1cccc(C)c1CO/N=C(\C)c1c(Cl)cc(Cl)cc1OC(F)(F)F [compound 436] | 70% | 15% | 73% | 27% |  |  |  | 
CNC(=O)/C(=N/OC)c1cccc(C)c1CO/N=C(\COC)c1ccccc1 [compound 295] |  |  |  |  | 2% | 0% | 11% | 0%
CO/N=C(/C(=O)OC)c1cccc(C)c1CO/N=C(\C)c1c(F)cc(F)cc1C(F)(F)F [compound 360] |  |  |  |  | 53% | 9% | 80% | 5%
CNC(=O)/C(=N/OC)c1cccc(C)c1CO/N=C(\C)c1cc(C(F)(F)F)cc(F)c1NC [compound 238] |  |  |  |  | 100% | 53% | 100% | 77%
CNC(=O)/C(=N/OC)c1cccc(C)c1CO/N=C(\C)c1c(F)ccc(F)c1C(F)(F)F [compound 359] |  |  |  |  | 100% | 37% | 100% | 43%
CO/N=C(/C(=O)OC)c1cccc(C)c1CO/N=C(\C)c1cc(Br)cc(F)c1F [compound 240] |  |  |  |  | 70% | 8% | 73% | 3%
CNC(=O)/C(=N/OC)c1cccc(C)c1CO/N=C(\C)c1cc(C(F)(F)F)ccc1C [compound 273] |  |  |  |  | 60% | 3% |  | 
CO/N=C(/C(=O)OC)c1cccc(C)c1CO/N=C(\C)c1ccc(Cl)c(Cl)c1C(F)(F)F [compound 429] | 83% | 50% | 67% | 43% |  |  |  | 
CNC(=O)/C(=N/OC)c1cccc(C)c1CO/N=C(\C)c1ccc(OC(F)(F)F)cc1Cl [compound 271] |  |  |  |  | 5% | 1% |  | 
CO/C=C(/C(=O)OC)c1cccc(C)c1CO/N=C(\C)c1ccc(OC)cc1C(F)(F)F [compound 464] | 1% | 0% | 8% | 0% |  |  |  | 
CNC(=O)/C(=N/OC)c1cccc(C)c1CO/N=C(\C)c1ccccc1C(C)(F)F [compound 372] |  |  |  |  | 85% | 26% | 85% | 16%
CO/N=C(/C(=O)OC)c1cccc(C)c1CO/N=C(\C)c1c(F)cccc1C(F)(F)F [compound 365] |  |  |  |  | 77% | 15% | 97% | 43%
CNC(=O)/C(=N/OC)c1cccc(C)c1CO/N=C(\C)c1ccc(OC)cc1OC(F)(F)F [compound 337] |  |  |  |  | 9% | 0% | 13% | 1%
CNC(=O)/C(=N/OC)c1cccc(C)c1CO/N=C(\C)c1cccc(Cl)c1C(F)(F)F [compound 422] | 30% | 0% | 32% | 2% |  |  |  | 
CNC(=O)/C(=N/OC)c1cccc(C)c1CO/N=C(\C)c1cc(Cl)cc(C(F)(F)F)c1 [compound 228] |  |  |  |  | 5% | 0% | 22% | 2%
CO/C=C(/C(=O)OC)c1cccc(C)c1CO/N=C(\C)c1ccc(Cl)c(F)c1OC(F)(F)F [compound 452] | 60% | 6% | 70% | 14% |  |  |  | 
CO/N=C(\C)COc1cccc(/C(C)=N/OCc2c(C)cccc2/C(=N\OC)C(=O)OC)c1 [compound 227] |  |  |  |  | 100% | 47% | 100% | 57%
CNC(=O)/C(=N/OC)c1cccc(C)c1CO/N=C(\C)c1c(F)cccc1Cl [compound 284] |  |  |  |  | 63% | 44% | 62% | 34%
CO/N=C(/C(=O)OC)c1cccc(C)c1CO/N=C(\C)c1cc(F)ccc1Br [compound 254] |  |  |  |  | 100% | 77% | 100% | 100%
CNC(=O)/C(=N/OC)c1cccc(C)c1CO/N=C(\C)c1ccccc1OCOC [compound 314] |  |  |  |  | 100% | 40% |  | 
CNC(=O)/C(=N/OC)c1cccc(C)c1CO/N=C(\C)c1ccccc1OC(C)C [compound 315] |  |  |  |  | 100% | 60% |  | 
CNC(=O)/C(=N/OC)c1cccc(C)c1CO/N=C(\C)c1cc(C(F)(F)F)ccc1C(F)(F)F [compound 272] |  |  |  |  | 60% | 8% |  | 
CNC(=O)/C(=N/OC)c1cccc(C)c1CO/N=C(\C)c1ccccc1Oc1ccccc1 [compound 321] |  |  |  |  | 100% | 40% |  | 
